# Data from publication PMC12261321, “Inhibitors of the Bacterioferritin Ferredoxin Complex Dysregulate Iron Homeostasis and Kill and Biofilm-Embedded Cells” (ACS Infectious Diseases, 2025).
# What was measured:
# [1] = Determination of compound aqueous solubility in M63 media; type: physicochemical; conditions: in M63 media at 35 °C
# Method: Determination of Compound Aqueous Solubility. Compound stocks (100 mM in DMSO) were prepared from […]
# powder and then further diluted with DMSO to prepare 20 mM working solutions, which were diluted as needed […]
# in DMSO. 15 µL o f the DMSO solution was then d iluted to a final volume o f 1.0 mL in M63 media. Six solutions […]
# were prepared for each compound, each with a distinct concentration and 1.5% DMSO (v/v). 700 µL of each […]
# compound solution was transferred to a polystyrene 48-well plate (VWR), followed by acquisition of UV-vis […]
# spectra (300 to 700 nm) with the aid of an Epoch 2 microplate reader (B i o Te k ). […]
# Following the acquisition of UV-vis spectra, each of the wells in the plate was inspected under a […]
# microscope for evidence of precipitation. Evidence of precipitation at any given concentration was determined by observing a shift in the baseline of the UV-vis spectra relative to the blank (M63 media) and/or evidence of visual precipitation with the aid of a micros cope. […]
# [2] = Stability in aqueous solution; type: physicochemical
# recombinant Pa BfrB = biological target: T1, recombinant Pa BfrB (Pseudomonas aeruginosa, UniProt Q9HY79); assay: Dissociation constant (Kd), fluorescence quenching titration of apo Pa BfrB; type: binding, P. aeruginosa
# T1 construct: made in house; host or cells: E. coli
# Method: Measurement of Dissociation Constant (Kd) R ecombinant Pa BfrB was expressed in E. coli and purified as previously reported.19 Apo-BfrB (devoid of heme) was utilized for the measurements to prevent heme-driven fluorescence quenching. A 0.5 mL solution contai ning 0.01 µM apo Pa-BfrB in PBS (pH = 7.4) containing0.5% DMSO was plac ed into a 1 cm quartz cuvette wh ere it was titrated with aliq uots of compound dissolved in a 50% (v/v) PBS/DMSO solution. The fluorescence quenching brought by the addition of each aliquot was monitored with the aid of an Agilent Cary Fluorometer , with excitation at 280 nm, emission at 320- 470 nm, 10 x10 nm slit width, and an average of 5 scans per spectrum. Th e binding assay included at least 8 aliquots spanning from ~ 0.1 […]
# A control titration was carried out by titrati ng compound into PBS buffer. The Kd was cal culated by fitting the data to equation S4, w here Fb is the fraction bound and Fmax is the fraction bound at saturating compound concentration.
# FFbb = FFmmmmmm ? [ccccmmccccccmmcc ]? (S4) […]
# P. aeruginosa PAO1 = assay: Half maximal inhibitory concentration (IC50), planktonic growth (CFU/mL); type: cell-based; conditions: M63 media, 18 h
# Method: Measurement of Half Maximal Inhibitory Concentration (IC50). IC50 values were determined as reported earlier13 with some modifications. Compound stock solutions in DMSO (100 mM and 10 mM) were prepared from powd er. To prep are the cell susp ensions utilized in the measu rements, starter cultures o f P. aeru ginosa wer e diluted to an optical density at 600 nm (OD600) = 0.005 in fresh LB media (5 mL) and then cultured at 37°C and 220 rpm for 4 h prior to diluting to an OD600 = 0.0001 in M63. A small volume of compound stock solution w as further diluted in DMSO to 30 µL and then diluted in M63 cell suspension to a final volume of 2.0 mL. The resultant solution was placed in a well of a 96-well plate and then serially 2-fold diluted in M63 cell suspension to produce 6 distinct com pound concent rations, each with 1.5% DMSO. Th e plate was co ver ed and incubated for 18 h at 35 °C in a Synergy H1 plate reader (Biotek). The resultant cell cultures were serially diluted in PBS and then plated on PI Agar plates (PIA; BD biosciences) for counting viable cells (CFU/mL). The % growth was calculated from the ratio CFU/mL(t reat ed )/CFU/mL(untreated control). To calculate the IC50 values, the % growth was plotted as a function of compound concentration expressed as log[compound] ( µM), and fitted to equation S1 describing the sigmoid- shaped response pattern, 14 where b is the slope factor, max is the upper asymptote (plateau), and min is the lower asymptote. IC 50 values are the average and standard deviation from three independent experiments , each conducted with thr ee techni cal replicates.
# A. baumannii 5075 [3] = assay: MIC, broth microdilution in M63 media; type: cell-based
# Method: (§1) Measurement of Minimum Inhibitory Concentrations (MIC). The MIC of compounds and select ed antibiotics against three strains of A. baumannii (5075, ATCC 17988, and ATCC 19606) were determined via the broth microdilution method according to Clinical and Laboratory Standard Instit ute (CLSI) guidelines,15 but culturing […]
# (§2) To establish a 2-fold dilution series of compound, 985 μ L of diluted cells was mixed with 15 μ L of compound […]
# (§3) dissolved in DMSO, such that the resultant solution had the highest concentration of compound or antibiotic tested and 1.5% DMSO. To carry out the serial dilution from the highest compound concentration, a 150 μ L solution of higher concentration compound or antibiotic was mixed with 150 μ L of cell suspension containing 1.5% DMSO in the wells of a 96 well plate.
# (§4) Th e 96 well plate was in cubated for 20 hat 35 °C with continuous orbital shaking (205 cpm) in an Epoch2 microplate reader (BioTek), monitoring the growth by […]
# (§5) following the OD600. […]
# (§6) FFFFFF = MMMMMMAA iiii ccllccbbiiiicccciilliiMMMMMMAA+ MMMMMMBB iiii ccllccbbiiiicccciilliiMMMMMMBB S2 Time Kill Assays. Time-kill assays were performed with A. baumannii 507 5 by the broth macro- dilution method in M63- medium containing 1.5% DMSO. An overnight culture was diluted to approximately 5 x10^5 CFU/mL in fresh M63 media. The test solutions were prepared by adding compound (KM-5- 35, or KM-5- 25) dissolved in DMSO to 5 mL of diluted cell suspension to yield a solution of the desired compound concentration and 1.5% DMSO, or by the addition of antibiotic dissolved in water and a small volume of DMSO to produce the desired
# A. baumannii ATCC 17978 = assay: MIC, broth microdilution in M63 media; type: cell-based
# Method: as §1, §2, §3, §4, §5, §6
# A. baumannii ATCC 19606 = assay: MIC, broth microdilution in M63 media; type: cell-based
# Method: as §1, §2, §3, §4, §5, §6
# A. baumannii 5075 [4] = assay: Checkerboard assay; type: cell-based; conditions: 5075; for MIC: Acinetobacter baumannii; for Interaction of the antibiotic with KM-5–25: checkerboard
# Method: To carry out the serial dilution from the highest compound concentration, a 150 μ L solution of higher concentration compound or antibiotic was mixed with 150 μ L of cell suspension containing […] Th e 96 well plate was in cubated for 20 hat 35 °C with continuous orbital shaking (205 cpm) in an Epoch2 microplate reader (BioTek), monitoring the growth by following the OD600. […] All assays were p erfo rmed in three biological replicates, each with three […] replicates. Checkerboard Assay. […] CFU/mL. […] in the vertical and hori zontal direction, respectivel y. Bacterial suspensions were […] escrib ed above fo r the MIC determination and added to the plates. […] The 96-well […] cubated for 20 h at 35 °C with continuous orbital shaking (205 cpm) in an Epoch2 microplate reader (BioTek), monitoring the growth by following the OD600. The MIC values of inhibitor and antibiotic were obtained from the corresponding row or column which contained only one component, whereas the remaining rows and columns were utilized for calculating the fractional inhibitory concentration index (FIC) with the aid of equation […] = […]2 Time Kill Assays. Time-kill assays were performed with A. baumannii 507 5 by the broth macro- dilution method […] An overnight culture was diluted to approximately 5 x10^5 CFU/mL in fresh […] media. […] DMSO, or by the addition of antibiotic dissolved in water and a small volume of DMSO to produce the desired S7
# Pa Bfr = conditions: earlier work, reference number not given; read-out: Kd of Pa Bfd binding to Pa Bfr; cited from earlier work
# [5] = agent alone, KM-5–35 14 μg/mL = 40 μM
# T1 sequence (Q9HY79 whole entry): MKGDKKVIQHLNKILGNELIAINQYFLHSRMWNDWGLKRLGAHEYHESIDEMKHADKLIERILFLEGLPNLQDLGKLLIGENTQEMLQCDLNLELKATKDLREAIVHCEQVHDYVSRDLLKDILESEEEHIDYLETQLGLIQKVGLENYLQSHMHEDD
molecule,measurement,setting,value
O=C1NC(=O)c2c(NCc3ccc(O)cc3O)cccc21 [BN-16-69],Solubility,[1],Unstable
same,stability in aqueous solution,[2],unstable in aqueous solution
O=C1NC(=O)c2c(NCc3c(O)cccc3O)cccc21 [BN-16-70],Solubility,[1],Unstable
same,stability in aqueous solution,[2],unstable in aqueous solution
O=C1NC(=O)c2c(NCc3cc(O)ccc3O)cccc21 [EB-5-93],Solubility,[1],Unstable
same,stability in aqueous solution,[2],unstable in aqueous solution
Cc1cccc(O)c1CNc1cccc2c1C(=O)NC2=O [SB-15-171],Solubility,[1],Unstable
Cc1ccc(O)c(CNc2ccc(Br)c3c2C(=O)NC3=O)c1 [SB-16-122],solubility at 4 h,[1],40 µM
same,Kd,recombinant Pa BfrB,5 ± 1 µM
same,IC50,P. aeruginosa PAO1; planktonic cells,19 ± 4 µM
same,MIC,A. baumannii 5075 [3]; 20 h,20 µM
same,MIC,A. baumannii ATCC 17978; 20 h,20 µM
same,MIC,A. baumannii ATCC 19606; 20 h,20 µM
O=C1NC(=O)c2c(NCc3cc(O)c(Br)cc3O)cccc21 [SB-16-186],Solubility,[1],Unstable
O=C1NC(=O)c2c(NCC3CCOCC3)cccc21 [SB-16-237],solubility at 4 h,[1],100 µM
same,Kd,recombinant Pa BfrB,42 ± 10 µM
same,"IC50, P. aeruginosa PAO1",P. aeruginosa PAO1; planktonic cells,Not active
same,MIC,A. baumannii 5075 [3]; 20 h,> 100 µM
same,MIC,A. baumannii ATCC 17978; 20 h,> 100 µM
same,MIC,A. baumannii ATCC 19606; 20 h,> 100 µM
O=C1NC(=O)c2c(NCc3ccc4[nH]ccc4c3)cccc21 [SB-17-16],Solubility,[1],Not soluble
O=C1NC(=O)c2c(NCc3cccc4[nH]ccc34)cccc21 [SB-17-75],solubility at 4 h,"[1]; M63 media with 1.5% DMSO, 35 °C, aqueous buffer, kinetic from dmso stock",60 µM
same,Kd,recombinant Pa BfrB,15 ± 2 µM
same,IC50,"P. aeruginosa PAO1; Pseudomonas aeruginosa, PAO1, planktonic cells",32 ± 13 µM
same,MIC,"A. baumannii 5075 [3]; Acinetobacter baumannii, 5075, 20 h",30 µM
same,MIC,"A. baumannii ATCC 17978; Acinetobacter baumannii, ATCC17978, 20 h",60 µM
same,MIC,"A. baumannii ATCC 19606; Acinetobacter baumannii, ATCC19606, 20 h",30 µM
Cn1ccnc1CNc1cccc2c1C(=O)NC2=O [SB-17-95],solubility at 4 h,[1],100 µM
same,Kd,recombinant Pa BfrB,57 ± 6 µM
same,"IC50, P. aeruginosa PAO1",P. aeruginosa PAO1; planktonic cells,Not active
same,"MIC, A. baumannii 5075",A. baumannii 5075 [3]; 20 h,Not active
same,"MIC, A. baumannii 17978",A. baumannii ATCC 17978; 20 h,Not active
same,"MIC, A. baumannii 19606",A. baumannii ATCC 19606; 20 h,Not active
O=C1NC(=O)c2c(NCc3ccc4c(c3)CCO4)cccc21 [SB-17-98],Solubility,[1],Not soluble
O=C1NC(=O)c2c(NCc3ccc4occc4c3)cccc21 [SB-17-109],Solubility,[1],Not soluble
O=C1NC(=O)c2c(NCc3cccc4c3CCO4)cccc21 [SB-17-110],Solubility,[1],Not soluble
Cn1ccc2ccc(CNc3cccc4c3C(=O)NC4=O)cc21 [SB-17-114],Solubility,[1],Not soluble
"CC(C)(O/N=C(\C(=O)N[C@@H]1C(=O)N2C(C(=O)[O-])=C(C[n+]3ccccc3)CS[C@H]12)c1csc(N)n1)C(=O)O [ceftazidime, reference compound]",MIC,A. baumannii 5075 [4]; [5],256 µg/mL
"O=C(O)c1cn(C2CC2)c2cc(N3CCNCC3)c(F)cc2c1=O [ciprofloxacin, reference compound]",MIC,A. baumannii 5075 [4]; [5],128 µg/mL
"C[C@@H](O)[C@H]1C(=O)N2C(C(=O)O)=C(SCCN=CN)C[C@H]12 [imipenem, reference compound]",MIC,A. baumannii 5075 [4]; [5],1 µg/mL
same,Interaction of the antibiotic with KM-5–25,A. baumannii 5075 [4],additive
"C[C@@H](O)[C@H]1C(=O)N2C(C(=O)O)=C(S[C@@H]3CN[C@H](C(=O)N(C)C)C3)[C@H](C)[C@H]12 [meropenem, reference compound]",MIC,A. baumannii 5075 [4]; [5],2 µg/mL
"NC[C@H]1O[C@H](O[C@H]2[C@H](O)[C@@H](O[C@H]3O[C@H](CO)[C@@H](O)[C@H](N)[C@H]3O)[C@H](N)C[C@@H]2N)[C@H](N)C[C@@H]1O [tobramycin, reference compound]",MIC,A. baumannii 5075 [4]; [5],512 µg/mL
colistin [reference compound],MIC alone,A. baumannii 5075 [4]; [5],1 µg/mL
same,Interaction of the antibiotic with KM-5–25,A. baumannii 5075 [4],synergy
"Pa Bfd: Bfr associated ferredoxin that binds Pa Bfr (protein, UniProt Q9HY80 1-73, looked up) Bacterioferritin-associated …: MYVCLCQGVTDNQIRDAIYEGCCSYREVREATGVGTQCGKCACLAKQVVRETLNDLQSAQPVPAFGTTAFVAA",Kd,Pa Bfr,4.7 µM
